ChEMBL document CHEMBL5042490, “Lead derivatization of ethyl 6-bromo-2-((dimethylamino)methyl)-5-hydroxy-1-phenyl-1H-indole-3-carboxylate and 5-bromo-2-(thiophene-2-carboxamido) benzoic acid as FabG inhibitors targeting ESKAPE pathogens” (Eur J Med Chem, 2022)

Assays:
[1] = Inhibition of Acinetobacter baumannii FabG assessed as reduction in Acetoacetyl-coenzyme-A substrate in presence of NADPH preincubated for 5 mins followed by substrate addition and measured for 6 to 10 mins by spectrophotometric analysis
[2] = Inhibition of Pseudomonas aeruginosa FabG assessed as reduction in Acetoacetyl-coenzyme-A substrate in presence of NADPH preincubated for 5 mins followed by substrate addition and measured for 6 to 10 mins by spectrophotometric analysis
[3] = Inhibition of Klebsiella pneumoniae FabG2 assessed as reduction in Acetoacetyl-coenzyme-A substrate in presence of NADH preincubated for 5 mins followed by substrate addition and measured for 6 to 10 mins by spectrophotometric analysis
[4] = Inhibition of Escherichia coli FabG assessed as reduction in Acetoacetyl-coenzyme-A substrate in presence of NADPH preincubated for 5 mins followed by substrate addition and measured for 6 to 10 mins by spectrophotometric analysis
[5] = Inhibition of Staphylococcus aureus FabG assessed as reduction in Acetoacetyl-coenzyme-A substrate in presence of NADPH preincubated for 5 mins followed by substrate addition and measured for 6 to 10 mins by spectrophotometric analysis
[6] = Inhibition of Salmonella typhimurium FabG assessed as reduction in Acetoacetyl-coenzyme-A substrate in presence of NADPH preincubated for 5 mins followed by substrate addition and measured for 6 to 10 mins by spectrophotometric analysis; design: species or system Salmonella enterica subsp. enterica serovar Typhimurium
[7] = Inhibition of Klebsiella pneumoniae FabG1 assessed as reduction in Acetoacetyl-coenzyme-A substrate in presence of NADPH preincubated for 5 mins followed by substrate addition and measured for 6 to 10 mins by spectrophotometric analysis
[8] = Inhibition of Mycobacterium tuberculosis FabG assessed as reduction in Acetoacetyl-coenzyme-A substrate in presence of NADPH preincubated for 5 mins followed by substrate addition and measured for 6 to 10 mins by spectrophotometric analysis

Structure (SMILES)	IC50 [1]	IC50 [2]	IC50 [3]	IC50 ([4]; read-out: IC50) [µM]	IC50 [5]	IC50 [6]	IC50 [7]	IC50 ([1]; read-out: IC50) [µM]	IC50 [4]	IC50 ([8]; read-out: IC50) [µM]	IC50 ([6]; read-out: IC50) [µM]	IC50 [8]
CCOC(=O)c1c(CSc2nc3ccccc3o2)n(C)c2cc(Br)c(O)cc12	Not Active	Not Active	Not Active	18.6	Not Active	Not Active	Not Active	–	–	–	–	–
Cc1c(Br)cccc1C(=O)Nc1ccc(Br)cc1C(=O)O	–	Not Active	Not Active	–	Not Active	Not Active	Not Active	36.7	Not Active	–	–	–
O=C(CCBr)Nc1ccc(Br)cc1C(=O)O	Not Active	Not Active	Not Active	–	Not Active	Not Active	Not Active	–	Not Active	78.3	–	–
O=C(Nc1ccc(Br)cc1C(=O)O)c1cccc(I)c1	–	Not Active	Not Active	21.6	Not Active	–	Not Active	15.7	–	14.7	37.4	–
O=C(O)c1cc(Br)ccc1NC(=O)c1cccnc1Cl	Not Active	Not Active	Not Active	15.9	Not Active	–	Not Active	–	–	–	51	–
CCOC(=O)c1c(CSc2nc3ccccc3s2)n(C)c2cc(Br)c(O)cc12	Not Active	Not Active	Not Active	31.8	Not Active	Not Active	Not Active	–	–	–	–	–
CCOC(=O)c1c(CSc2nc3ccccc3s2)n(Cc2ccccc2)c2cc(Br)c(O)cc12	Not Active	Not Active	Not Active	20.8	Not Active	Not Active	Not Active	–	–	–	–	Not Active
